Calls of active or inactive are those of the source. The rule behind the calls is not given here.
Tests used:
[1] = Antioxidant activity assessed as DPPH radical scavenging activity incubated for 30 mins under dark condition by microplate reader based assay; assay type: functional
[2] = Antioxidant activity assessed as trolox equivalent of Cu2+ reducing activity incubated for 30 mins by CUPRAC assay relative to trolox; assay type: functional
DNA [3] = assay: Induction of copper-mediated Escherichia coli supercoiled pBR322 DNA cleavage assessed as increase in cleaved DNA with significant amount of supercoiled form at 1 mM incubated for 24 hrs in presence of Cu2+ ion by agarose gel electrophoresis analysis; assay type: nucleic-acid assay
HaCaT = assay: Anti-ferroptotic activity against erastin-induced ferroptosis in human HaCaT cells assessed as cell viability at 5 uM pretreated with compound for 4 hrs followed by erastin challenge for 24 hrs by MTT assay (reference value: 45%); assay type: functional; settings: time 28 hrs, read-out: Activity
DNA [4] = assay: Induction of copper-mediated Escherichia coli supercoiled pBR322 DNA cleavage assessed as increase in open circular form of DNA with small amount of linear form at 1 mM incubated for 24 hrs in presence of Cu2+ ion by agarose gel electrophoresis analysis; assay type: nucleic-acid assay
DNA [5] = assay: Induction of copper-mediated Escherichia coli supercoiled pBR322 DNA cleavage at 100 uM incubated for 24 hrs in presence of Cu2+ ion by agarose gel electrophoresis analysis; assay type: nucleic-acid assay
DNA [6] = assay: Induction of copper-mediated Escherichia coli supercoiled pBR322 DNA cleavage assessed as increase in open circular form of DNA at 1 mM incubated for 24 hrs in presence of Cu2+ ion by agarose gel electrophoresis analysis; assay type: nucleic-acid assay
DNA [7] = assay: Induction of copper-mediated Escherichia coli supercoiled pBR322 DNA cleavage assessed as increase in open circular form and linear form of DNA at 100 uM incubated for 24 hrs in presence of Cu2+ ion by agarose gel electrophoresis analysis; assay type: nucleic-acid assay
DNA [8] = assay: Induction of copper-mediated Escherichia coli supercoiled pBR322 DNA cleavage assessed as cleavage of DNA into smaller fragments at 1 mM incubated for 24 hrs in presence of Cu2+ ion by agarose gel electrophoresis analysis; assay type: nucleic-acid assay
DNA [9] = assay: Induction of Escherichia coli supercoiled pBR322 DNA cleavage incubated for 90 mins in presence of Cu2+ ion by agarose gel electrophoresis analysis; assay type: nucleic-acid assay; settings: dose 3.9-500 µM, DDE = dose-dependent effect

Compound	IC50 ([1]; read-out: IC50) [µM]	Ratio [2]	Activity (DNA [3])	viability at 5 µM (HaCaT) [%]	Activity (DNA [4])	Activity (DNA [5])	Activity (DNA [6])	Activity (DNA [7])	Activity (DNA [8])	Activity (DNA [9])	IC50 [1]
CC1(C)C=Cc2c(ccc3cc(C(=O)N/N=C/c4cccc(O)c4O)oc23)O1	6.04	1.75	Active								
Cc1ccc(O)c(/C=N/NC(=O)c2cc3ccc4c(c3o2)C=CC(C)(C)O4)c1	> 100	0.95		62	Active						
O=c1c(O)c(-c2ccc(O)c(O)c2)oc2cc(O)ccc12 [FISETIN]				70							
CC1(C)C=Cc2c(ccc3cc(C(=O)N/N=C/c4ccc(O)cc4O)oc23)O1	70.1	1.42									
COc1cc(/C=N/NC(=O)c2cc3ccc4c(c3o2)C=CC(C)(C)O4)cc(I)c1O	> 100	0.99		59	Active	Active					
COc1cc(/C=N/NC(=O)c2cc3ccc4c(c3o2)C=CC(C)(C)O4)cc([N+](=O)[O-])c1O	> 100	1.52		59	Active	Active					
CC1(C)C=Cc2c(ccc3cc(C(=O)N/N=C/c4cc(O)c(O)c(O)c4)oc23)O1	27.9	2.59	Active	56							
CC1(C)C=Cc2c(ccc3cc(C(=O)N/N=C/c4cccc(O)c4)oc23)O1						Active	Active				
CC1(C)C=Cc2c(ccc3cc(C(=O)N/N=C/c4ccc(O)c(O)c4O)oc23)O1	10.1	2.89		70			Active	Active			
COc1cc(/C=N/NC(=O)c2cc3ccc4c(c3o2)C=CC(C)(C)O4)ccc1O	87.8	1.75		44	Active	Active					
CC1(C)C=Cc2c(ccc3cc(C(=O)N/N=C/c4cc(O)ccc4O)oc23)O1	9.1	1.8		69			Active				
CC1(C)C=Cc2c(ccc3cc(C(=O)N/N=C/c4cc(O)cc(O)c4)oc23)O1	> 100	1.27				Active	Active				
Cc1cc(/C=N/NC(=O)c2cc3ccc4c(c3o2)C=CC(C)(C)O4)cc(C)c1O	61.2	1.11		50	Active	Active					
CC1(C)C=Cc2c(ccc3cc(C(=O)N/N=C/c4ccccc4O)oc23)O1		0.48		62			Active				
CC1(C)C=Cc2c(ccc3cc(C(=O)N/N=C/c4cc(O)c(O)cc4O)oc23)O1	24.3	2.43		56					Active		
O=C1O[C@H]([C@@H](O)CO)C(O)=C1O [ASCORBIC ACID]	51.2	0.72									
CC1(C)C=Cc2c(ccc3cc(C(=O)N/N=C/c4c(O)cc(O)cc4O)oc23)O1	81	1.36	Active	56							
COc1cccc(/C=N/NC(=O)c2cc3ccc4c(c3o2)C=CC(C)(C)O4)c1O	> 100	0.85		44	Active						
CC1(C)C=Cc2c(ccc3cc(C(=O)N/N=C/c4ccc(O)c(O)c4)oc23)O1	5.92	3.97		60				Active	Active	Dde	
COc1cc(O)c(/C=N/NC(=O)c2cc3ccc4c(c3o2)C=CC(C)(C)O4)c(OC)c1	> 100	0.97		41	Active						
COc1ccc(/C=N/NC(=O)c2cc3ccc4c(c3o2)C=CC(C)(C)O4)cc1O	> 100	1.36		44	Active	Active					
CC1(C)C=Cc2c(ccc3cc(C(=O)N/N=C/c4ccc(O)cc4)oc23)O1	> 100	0.79				Active	Active				
COc1ccc(O)c(/C=N/NC(=O)c2cc3ccc4c(c3o2)C=CC(C)(C)O4)c1	> 100	1.22		44	Active						
COc1cc(/C=N/NC(=O)c2cc3ccc4c(c3o2)C=CC(C)(C)O4)cc(Br)c1O	> 100	1.09		59	Active	Active					
COc1ccc(/C=N/NC(=O)c2cc3ccc4c(c3o2)C=CC(C)(C)O4)c(O)c1	67.4	1.01		> 50	Active						
COc1cc(/C=N/NC(=O)c2cc3ccc4c(c3o2)C=CC(C)(C)O4)cc(OC)c1O		2.22		57	Active	Active					Nd(Insoluble)
